Patent US11236084B2, “Substituted azaindoline derivatives as NIK inhibitors” (Janssen Pharmaceutica NV, priority 2017, dated 2022)
Read-outs that look alike come from different tables or passages of the source.

Columns and labels:
[1] = molecular target: T1, recombinant human NF-kappaB-inducing kinase (NIK/MAP3K14) (Homo sapiens, UniProt Q99558); assay: Biological Assay A: inhibition of recombinant human NF-kappaB-inducing kinase (NIK/MAP3K14) activity (MBP phosphorylation, Mesoscale); details: MSD MBP; averaged over all measurements on all batches; read-out: Assay A Biochemical (MSD MBP) IC50
Protocol: Pharmacological Part Biological Assay A Inhibition of Recombinant Human NF-kappaB-Inducing Kinase (NIK/MAP3K14) Activity
Assay buffer was 50 mM Tris pH 7.5 containing 1 mM EGTA (ethylene glycol tetraacetic acid), 1 mM DTT (dithiothreitol), 0.1 mM Na3VO4, 5 mM MgCl2, 0.01% Tween® 20. Assays were carried out in 384 well Mesoscale high binding plates which had been coated with myelin basic protein (MBP) and blocked with bovine serum albumin to prevent non-specific protein binding. All compounds tested were dissolved in dimethyl sulfoxide (DMSO) and further dilutions were made in assay buffer. Final DMSO concentration was 1% (v/v) in assays. Incubations consisted of compound (1% DMSO in control and blank wells), 25 μM […] (ATP), and 10 nM NIK/MAP3K14 substituting enzyme with buffer in the blank wells. Incubations were carried out for 1 h at 25° C. and were followed by washing and sequential incubation with rabbit anti-phospho-MBP and anti-rabbit Ig Sulfotag antibody before reading bound Sulfotag on a Mesoscale Discovery. Signal obtained in the wells containing blank samples was subtracted from all other wells and […] were determined by fitting a sigmoidal curve to % inhibition of control versus Log10 compound concentration.
(§1) Data for the compounds of the invention in the above assays are provided in Table A (the values in Table are averaged values over all measurements on all batches of a compound; values as IC50 (nM)). (‘n.c.’ means not calculated: ‘Co.’ means compound)

[2] = molecular target: T1, recombinant human NF-kappaB-inducing kinase (NIK/MAP3K14); assay: Biological Assay B: inhibition of auto-phosphorylation of recombinant human NIK/MAP3K14 (AlphaScreen), performed at 2 locations; format: biochemical; details: averaged values
Method in brief: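 GST-tagged NIK (0.2 nM) auto-phosphorylation with 25 microM ATP in 50 mM Tris pH 7.5, 5 mM MgCl2, 1% DMSO, 1 h at 25° C. Anti-phospho-IKK Ser176/180 AlphaScreen readout; blank-subtracted IC50 from sigmoidal fit. Run at two sites.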

[3] = test system: P-IKKα levels in L363 (NIK translocated multiple myeloma) cells; assay: Biological Assay C: effect of compounds on P-IKKα levels in L363 (NIK translocated multiple myeloma) cells, performed at 2 locations; format: cell-based, human; details: L363 cells, P-IKKα levels, averaged values
Protocol: Effect of Compounds on P-IKKα Levels in L363 (NIK Translocated Multiple Myeloma) Cells
All compounds tested were dissolved in DMSO and further dilutions were made in culture medium. Final DMSO concentration was 1% (v/v) in cell assays. The human L363 cells (ATCC) were cultured in RPMI 1640 medium supplemented with GlutaMax and 10% fetal calf serum (PAA). Cells were routinely maintained at densities of 0.2×10^6 cells per ml-1×10^6 cells per ml at 37° C. in a humidified 5% CO2 atmosphere. Cells were passaged twice a week splitting back to obtain the low density. Cells were seeded in 96 well plates (Nunc 167008) at 2×10^6 per ml media in a volume of 75 μl per well plus 25 μl […] recombinant human B-cell activating factor (BAFF/BLyS/TNFSF13B). Seeded cells were incubated at 37° C. in a humidified 5% CO2 atmosphere for 24 hr. Drugs and/or solvents were added (20 μl) to a final volume of 120 μl. Following 2 hr treatment plates were removed from the incubator and cell lysis was achieved by the addition of 30 μl 5× lysis buffer followed by shaking on a plate shaker at 4° C. for 10 min. At the end of this incubation lysed cells were centrifuged at 800×g for 20 min at 4° C. and the lysate was assessed for P-IKKα levels by sandwich immuno-assay carried out in anti-rabbit antibody coated Mesoscale plates. Within an experiment, the results for each treatment were the mean of 2 replicate wells. For initial screening purposes, compounds were tested using an 8 point dilution curve (serial 1:3 dilutions). For each experiment, controls (containing MG132 and BAFF but no test drug) and a blank incubation (containing MG132 and BAFF and 1 μM ADS125117, a test concentration known to give full inhibition) were run in parallel. The blank incubation value was subtracted from all control and sample values. To determine the IC50 a sigmoidal curve was fitted to the plot of % inhibition of control P-IKKα levels versus Log10 compound concentration.
Assay C was performed at 2 different locations.
as §1

[4] = location 2, AlphaScreen auto-phosphorylation, read-out: Assay B location 2 IC50
[5] = Homo sapiens, L-363, location 2, read-out: Assay C location 2 IC50
[6] = location 1, AlphaScreen auto-phosphorylation, read-out: Assay B location 1 IC50
[7] = location 1, NIK auto-phosphorylation, AlphaScreen, read-out: Assay B location 1 IC50
[8] = Homo sapiens, L-363, location 1, read-out: Assay C location 1 IC50

T1 sequence (Q99558 whole entry): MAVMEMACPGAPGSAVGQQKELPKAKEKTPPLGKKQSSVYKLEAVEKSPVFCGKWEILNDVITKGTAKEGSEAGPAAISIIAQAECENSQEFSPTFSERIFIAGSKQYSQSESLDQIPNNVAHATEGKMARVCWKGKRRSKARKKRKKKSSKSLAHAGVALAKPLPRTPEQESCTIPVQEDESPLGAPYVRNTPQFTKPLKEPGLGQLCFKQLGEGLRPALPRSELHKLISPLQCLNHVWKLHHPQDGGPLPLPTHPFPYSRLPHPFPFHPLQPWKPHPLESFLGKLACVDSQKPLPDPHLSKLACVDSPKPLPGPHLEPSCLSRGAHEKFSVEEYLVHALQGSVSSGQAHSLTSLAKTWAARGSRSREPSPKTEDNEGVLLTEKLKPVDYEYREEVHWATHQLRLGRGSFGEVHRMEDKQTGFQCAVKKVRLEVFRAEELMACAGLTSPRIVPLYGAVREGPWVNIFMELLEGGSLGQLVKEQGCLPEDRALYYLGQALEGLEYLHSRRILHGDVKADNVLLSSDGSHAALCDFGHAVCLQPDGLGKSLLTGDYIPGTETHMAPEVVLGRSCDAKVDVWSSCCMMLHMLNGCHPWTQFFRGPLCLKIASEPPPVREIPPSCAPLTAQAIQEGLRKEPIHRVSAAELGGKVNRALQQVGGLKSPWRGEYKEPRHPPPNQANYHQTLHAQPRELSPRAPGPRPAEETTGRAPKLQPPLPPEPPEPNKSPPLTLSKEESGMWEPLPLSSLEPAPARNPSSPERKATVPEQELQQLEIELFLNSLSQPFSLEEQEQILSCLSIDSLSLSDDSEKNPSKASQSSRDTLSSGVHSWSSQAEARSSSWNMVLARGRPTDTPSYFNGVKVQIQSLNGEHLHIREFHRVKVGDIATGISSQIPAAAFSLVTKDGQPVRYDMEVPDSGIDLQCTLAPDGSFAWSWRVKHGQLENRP

SMILES	IC50 [1] [nM]	IC50 [2, 4] [nM]	IC50 [3, 5] [nM]	IC50 [2, 6] [nM]	IC50 [2, 7] [nM]	melting point [°C]	IC50 [3, 8] [nM]	IC50 ([3]; location 2, read-out: Assay C location 2 IC50) [nM]
CC(=O)NCc1ccc(Nc2nccc(-c3cnc4c(c3)C(C)(C)CN4)n2)c(OC(F)F)c1 [Compound 85]	14.1	3	67.6	–	–	–	–	–
Cc1cc(C(=O)NC2CCOCC2)ccc1Nc1nccc(-c2cnc3c(c2)C(C)(CC#N)CN3)n1 (centres unmarked) [Compound 126]	8.7	–	537	14.8	–	–	–	–
Cc1cc(C(=O)NC2CN(C)C2)ccc1Nc1nccc(-c2cnc3c(c2)C(C)(CO)CN3)n1 (centres unmarked) [Compound 89]	63.1	20.4	5010	–	–	–	–	–
COc1cc(CNC(C)=O)ccc1Nc1nccc(-c2cnc3c(c2)C(C)(C)CN3)n1 [Compound 62]	5.5	1.4	43.7	–	–	–	–	–
Cc1cc(C(=O)NC2CN(C)C2)ccc1Nc1nccc(-c2cnc3c(c2)C(C)(C)CN3)n1 [Compound 55]	32.4	3.3	288	–	–	–	–	–
CC(=O)NCc1ccc(Nc2nccc(-c3cnc4c(c3)C(C)(CO)CN4)n2)c(C)c1 (centres unmarked) [Compound 86]	15.1	11.2	550	–	–	–	–	–
COCCOc1ccc(Cl)cc1Nc1nccc(-c2cnc3c(c2)C(C)(CO)CN3)n1 (centres unmarked) [Compound 356]	–	–	–	–	24.6	208	–	–
Cc1cc(C(=O)N2CCOCC2)ccc1Nc1nccc(-c2cnc3c(c2)C(C)(CO)CN3)n1 (centres unmarked) [Compound 120]	9.3	7.8	427	–	–	–	–	–
Cc1cc(C(=O)N2CCC(O)CC2)ccc1Nc1nccc(-c2cnc3c(c2)C(C)(CO)CN3)n1 (centres unmarked) [Compound 109]	10.2	5.5	309	–	–	–	–	–
COc1cc(C(=O)N2CCC(OC)CC2)ccc1Nc1nccc(-c2cnc3c(c2)C(C)(CO)CN3)n1 (centres unmarked) [Compound 131]	4.5	0.9	70.8	–	–	–	–	–
Cc1cc(C(=O)NC2CCOCC2)ccc1Nc1nccc(-c2cnc3c(c2)C(C)(CO)CN3)n1 (centres unmarked) [Compound 87]	21.4	13.5	1150	17.8	–	–	–	–
COc1cc(C(=O)NC2CCOCC2)ccc1Nc1nccc(-c2cnc3c(c2)C(C)(C)CN3)n1 [Compound 50]	7.4	1.2	81.3	–	–	–	–	–
CC(=O)NCc1cccc(Nc2nccc(-c3cnc4c(c3)C(C)(CO)CN4)n2)c1C (centres unmarked) [Compound 360]	77.6	33.9	912	–	–	–	–	–
Cc1cc(C(=O)NC2CCOCC2)ccc1Nc1nccc(-c2cnc3c(c2)C(C)(CCC#N)CN3)n1 (centres unmarked) [Compound 125]	12.3	–	1230	31.6	–	–	–	–
Cc1cc(C(=O)N2CCS(=O)(=O)CC2)ccc1Nc1nccc(-c2cnc3c(c2)C(C)(CO)CN3)n1 (centres unmarked) [Compound 134]	3.9	4.4	776	–	–	–	–	–
COc1cc(C(=O)NC2CCN(C)CC2)ccc1Nc1nccc(-c2cnc3c(c2)C(C)(C)CN3)n1 [Compound 60]	5.5	1.2	407	–	–	–	–	–
COc1cc(C(=O)N2CCS(=O)(=O)CC2)ccc1Nc1nccc(-c2cnc3c(c2)C(C)(CO)CN3)n1 (centres unmarked) [Compound 132]	3.3	3.1	513	10	–	–	–	–
COc1cc(C(=O)NC2CCN(C)CC2)ccc1Nc1nccc(-c2cnc3c(c2)C(C)(CO)CN3)n1 (centres unmarked) [Compound 130]	10.2	10.7	661	–	–	–	–	–
COc1cc(CNC(C)=O)c(C)c(Nc2nccc(-c3cnc4c(c3)C(C)(C)CN4)n2)c1 [Compound 49]	6.2	1.8	43.7	–	–	–	550	–

SMILES	IC50 [1] [nM]	IC50 [2, 4] [nM]	IC50 [3, 5] [nM]	IC50 [2, 6] [nM]	IC50 [2, 7] [nM]	melting point [°C]	IC50 [3, 8] [nM]	IC50 ([3]; location 2, read-out: Assay C location 2 IC50) [nM]
COC1CCN(C(=O)c2ccc(Nc3nccc(-c4cnc5c(c4)C(C)(C)CN5)n3)c(C)c2)CC1 [Compound 79]	11.8	1.3	74.1	–	–	–	661	–
COc1cc(N2CC3(CCOCC3)C2)c(Cl)cc1Nc1ncc(F)c(-c2cnc3c(c2)C(C)(CO)CN3)n1 (centres unmarked) [Compound 345]	–	–	–	–	19.1	> 250	–	–
Cc1cc(C(=O)N2CC(C)(O)C2)ccc1Nc1nccc(-c2cnc3c(c2)C(C)(C)CN3)n1 [Compound 80]	39.8	–	646	–	–	–	–	–
CC(=O)NCc1ccc(Nc2nccc(-c3cnc4c(c3)C(C)(C)CN4)n2)c(C)c1 [Compound 44]	20	2.5	243	–	–	–	–	–
COc1cc(C(=O)NC2CCOCC2)ccc1Nc1nccc(-c2cnc3c(c2)C(C)(CO)CN3)n1 (centres unmarked) [Compound 1]	12	2.6	129	–	–	–	–	–
COc1cc(Nc2nccc(-c3cnc4c(c3)C(C)(CO)CN4)n2)c(C)c(C(=O)NC2CN(C)C2)c1 (centres unmarked) [Compound 90]	14.8	5.1	759	–	–	–	–	–
CC1(C)CNc2ncc(-c3ccnc(Nc4ccc(C(=O)NC5CCOCC5)cc4C(F)(F)F)n3)cc21 [Compound 94]	347	–	~10000	–	–	–	–	–
CC1(C)CNc2ncc(-c3ccnc(Nc4ccc(C(=O)NC5CCOCC5)cc4OC(F)F)n3)cc21 [Compound 82]	24.6	2.7	282	–	–	–	–	–
COc1cc(Nc2nccc(-c3cnc4c(c3)C(C)(CO)CN4)n2)cc(OC)c1OC (centres unmarked) [Compound 46]	3.3	2.8	~129	–	–	–	–	–
CC1(C)CNc2ncc(-c3ccnc(Nc4ccc(C(=O)NC5CCOCC5)cc4C(F)F)n3)cc21 [Compound 110]	129	–	2340	–	–	–	–	–
Cc1cc(C(=O)N2CCN(C)CC2)ccc1Nc1nccc(-c2cnc3c(c2)C(C)(C)CN3)n1 [Compound 81]	14.8	2.6	589	–	–	–	–	–
COc1cc(CNC(C)=O)c(C)c(Nc2nccc(-c3cnc4c(c3)C(C)(CO)CN4)n2)c1 (centres unmarked) [Compound 84]	5.4	4.8	49	–	–	–	–	–
Cc1cc(CNC(=O)C(C)C)ccc1Nc1nccc(-c2cnc3c(c2)C(C)(C)CN3)n1 [Compound 75]	12.3	–	135	–	–	–	–	–
CCC(=O)NCc1cccc(Nc2nccc(-c3cnc4c(c3)C(C)(C)CN4)n2)c1C [Compound 64]	13.5	–	407	–	–	–	–	–
CC1(C)CNc2ncc(-c3ccnc(Nc4ccc(C(=O)NC5CCOCC5)cc4Cl)n3)cc21 [Compound 104]	61.7	–	398	–	–	–	–	–
COC1CCN(C(=O)c2ccc(Nc3nccc(-c4cnc5c(c4)C(C)(CO)CN5)n3)c(C)c2)CC1 (centres unmarked) [Compound 121]	11.2	7.2	–	–	–	–	–	380
COc1cc(Nc2nccc(-c3cnc4c(c3)C(C)(C)CN4)n2)c(C)c(C(=O)NC2CCOCC2)c1 [Compound 105]	30.2	–	436	–	–	–	–	–
Cc1cc(C(=O)N2CCC(O)CC2)ccc1Nc1nccc(-c2cnc3c(c2)C(C)(C)CN3)n1 [Compound 54]	8.9	3.4	373	–	–	–	263	–
